From ChEMBL document CHEMBL1201862, “PubChem BioAssay data set” (2004) come the findings set out here.

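1) Cells in 96-well plates. 2) Compound, 48 h, 5 concentrations. 3) Linear interpolation between surrounding doses. 4) Unreached endpoint = highest concentration. GI50 is the concentration that inhibits growth by half.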 Activity calls are given as the source filed them. No stated cut-off is given here; in the data, active = GI50 up to about 1.1 µM and inactive = higher.

Some test systems named below: M19-MEL; RXF 631; XF498; SNB-78; HOP-18; DLD-1; LXFL 529; DMS-114; KM-20L2.
Common to all, as to experiment: NCI-60 cell line screen, 48 h

On to `CCOC(=O)N1C2C=C(C)C(C3C(C)C(=O)N31)N(C(=O)c1ccccc1)O2` (stereo not given), for which the GI50 in the experiment with M19-MEL, in the experiment on RXF 631, in the experiment on XF498, with SNB-78, in the experiment on HOP-18 and in the experiment on DLD-1 was > 100 µM (inactive) each time. The GI50 in the experiment with LXFL 529 and in the experiment with DMS-114 was > 100 µM (inactive) throughout.
Take `COC(=O)Cc1nc2ccccc2o1`: the GI50 in the experiment on M19-MEL is 30.5 µM (inactive); in the experiment on RXF 631 it was > 100 µM (inactive); in the experiment on KM-20L2, 20.5 µM (inactive); in the experiment on XF498, 59 µM (inactive); with SNB-78 it was > 100 µM (inactive); in the experiment on HOP-18, > 100 µM (inactive). Also, the results for the GI50 with DLD-1, in the experiment on LXFL 529 and in the experiment with DMS-114 were 45.1 µM (inactive), 49.3 µM (inactive) and 36.1 µM (inactive), respectively.
For the molecule `CCOC(=O)Cn1c2ccccc2c(=O)c2cc(C)c(C)c(C#N)c21`, the GI50 is > 100 µM (inactive) in the experiment with M19-MEL; > 100 µM (inactive) in the experiment on RXF 631; > 100 µM (inactive) in the experiment with KM-20L2; 30.2 µM (inactive) in the experiment with XF498; > 100 µM (inactive) in the experiment on SNB-78; > 100 µM (inactive) in the experiment on HOP-18. Moreover, the GI50 in the experiment on DLD-1 and in the experiment on LXFL 529 was > 100 µM (inactive) in each case.
`C[n+]1c2ccccc2c(NC(CCC(N)=O)C(=O)O)c2ccccc21` (stereo not given): the GI50 with M19-MEL, in the experiment with RXF 631, in the experiment on KM-20L2, in the experiment on XF498, in the experiment on SNB-78 and in the experiment on HOP-18 was > 100 µM (inactive) throughout. The GI50 in the experiment with DLD-1, with LXFL 529 and in the experiment with DMS-114 was > 100 µM (inactive) in each case.
Regarding `CC(=O)OCC1OC(n2c(=O)n(-c3ccccc3)c(=O)c3cc(Br)cc(Br)c32)C(OC(C)=O)C(OC(C)=O)C1OC(C)=O` (stereo not given), the GI50 in the experiment on M19-MEL was > 100 µM (inactive); in the experiment with RXF 631, > 100 µM (inactive); with KM-20L2 it was 8.95 µM (inactive); in the experiment with XF498, > 100 µM (inactive); in the experiment on SNB-78, > 100 µM (inactive); with HOP-18, > 100 µM (inactive). The GI50 in the experiment with DLD-1, with LXFL 529 and in the experiment on DMS-114 was > 100 µM (inactive) in each case.
Turning to `Cc1ccccc1C1OC(=O)c2ccc3ccccc3c21` (stereo not given), the GI50 with M19-MEL was 3.27 µM (inactive); in the experiment on RXF 631 it was 0.607 µM (active); with KM-20L2, 4.16 µM (inactive); in the experiment on XF498 it was 2.31 µM (inactive); in the experiment with SNB-78 it was 6.5 µM (inactive); in the experiment on HOP-18 it was 7.64 µM (inactive). Moreover, the GI50 was 3.37 µM (inactive) in the experiment on DLD-1, 3.38 µM (inactive) in the experiment on LXFL 529 and 4.67 µM (inactive) in the experiment with DMS-114.
On to `O=S1OC(c2ccccc2)(c2ccccc2)C(c2ccccc2)(c2ccccc2)O1`, for which the GI50 with M19-MEL was > 86.7 µM (inactive); with RXF 631, > 100 µM (inactive); in the experiment with KM-20L2, 18 µM (inactive); in the experiment with XF498, 56.2 µM (inactive); in the experiment on SNB-78, > 100 µM (inactive); in the experiment on HOP-18 it was > 100 µM (inactive). The GI50 was > 73.8 µM (inactive) with DLD-1, 7.45 µM (inactive) in the experiment with LXFL 529 and 36.8 µM (inactive) in the experiment with DMS-114.
As to `NC(CNc1ccc(O)cc1)C(=O)O` (stereo not given), the GI50 in the experiment on M19-MEL was 28.8 µM (inactive); in the experiment with RXF 631, 92.3 µM (inactive); in the experiment on KM-20L2 it was 63 µM (inactive); in the experiment on XF498 it was 13.5 µM (inactive); in the experiment on SNB-78, > 100 µM (inactive); in the experiment on HOP-18, > 100 µM (inactive). The GI50 with DLD-1, in the experiment on LXFL 529 and with DMS-114 was > 100 µM (inactive) in each case.
